Assay results: patent US7700648B2, “Ester compound and its use” (Sumitomo Chemical Company Limited, priority 2004, dated 2010)

Test system: common mosquitoes (Culex pipiens pallens)
Experiment: Knock-down test on common mosquitoes by oil solution spray in a cubic chamber
Type: in vivo
Settings: 0.7 ml of 0.025% oil solution sprayed in 70 cm cubic chamber; ten female Culex pipiens pallens; counted for 10 minutes
Excerpt: A solution of 0.025 part of the present compound (1) dissolved with 10 parts of dichloromethane was mixed with 89.975 parts of deodorized kerosene to give a 0.025% oil solution.
Ten female common mosquitoes (Culex pipiens pallens) were left in a cubic chamber (70 cm at side). Seven-tenths (0.7) ml of the 0.025% oil solution of the present compound (1) was sprayed with a spray gun at a pressure of 8.8×10^4 Pa from a small window on the side of the chamber. Then, the number of the knocked-down insects was counted at times for 10 minutes. The time (KT50) for knocking down half of the tested insects was calculated from the result.
For the comparison, 5-benzyl-3-furylmethyl 1R-trans-2,2-dimethyl-3-((E)-2-cyano-3-ethoxy-3-oxo-1-propenyl)cyclopropanecarboxylate (hereinafter, referred to as the comparison compound) was also subjected to the above mentioned test. The test was done twice for one compound.

| Structure (SMILES) | KT50 (time for knocking down half of the tested insects) [min] |
| --- | --- |
| COC(=O)/C(C#N)=C/C1C(C(=O)OCc2coc(Cc3ccccc3)c2)C1(C)C (stereo not drawn) [The present compound (1), 5-benzyl-3-furylmethyl 1R-trans-2,2-dimethyl-3-((E)-2-cyano-3-methoxy-3-oxo-1-propenyl)cyclopropan ecarboxylate] | 0.7 |
| CCOC(=O)/C(C#N)=C/[C@@H]1[C@@H](C(=O)OCc2coc(Cc3ccccc3)c2)C1(C)C (relative stereo) [The comparison compound, 5-benzyl-3-furylmethyl 1R-trans-2,2-dimethyl-3-((E)-2-cyano-3-ethoxy-3-oxo-1-propenyl)cyclopropanecarboxylate] | 6.1 |
